Article PMC5303695 (Science (New York, N.Y.), 2016)

Biological target: PodA30–162 (Mycolicibacterium fortuitum, UniProt K0V2D8)
Assay: X-ray crystal structure, […] Å
Assay type: binding
Conditions: co-crystal; solvent-exposed active site, stacking with F70

Oc1cccc2nc3ccccc3nc12 [1-hydroxyphenazine]
X-ray crystal structure, 1.8 Å: Crystal formation occurred only in the presence of 1-OH-PHZ, which was visible in a putative
